The supplement of paper PMC10307832

Assays:
Assay in all cases: relative viability (nuclei count vs DMSO), 5 days (fraction); higher = more cells survive
Crenolanib + Alpelisib = compound: CC1(COc2ccc3c(c2)ncn3-c2ccc3cccc(N4CCC(N)CC4)c3n2)COC1 [Crenolanib] + Cc1nc(NC(=O)N2CCC[C@H]2C(N)=O)sc1-c1ccnc(C(C)(C)C(F)(F)F)c1 [Alpelisib] (partner 2 µM)
In short: (§1)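 Relative viability was taken as the ratio of nuclei in treated wells to nuclei in vehicle wells. Lung cancer cell lines in 1536-well plates received compounds by pin tool one day after seeding, either one drug alone or a fixed anchor-drug dose plus five library-drug doses (not always all listed) in √10 steps. Nuclei were counted on 4× images after 5 days of treatment, and values are medians of duplicate plates.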

Tivantinib + Foretinib = compound: O=C1NC(=O)[C@@H](c2cn3c4c(cccc24)CCC3)[C@@H]1c1c[nH]c2ccccc12 [Tivantinib] + COc1cc2c(Oc3ccc(NC(=O)C4(C(=O)Nc5ccc(F)cc5)CC4)cc3F)ccnc2cc1OCCCN1CCOCC1 [Foretinib] (partner 0.25 µM)
In short: as §1

Tivantinib + Crizotinib = compound: O=C1NC(=O)[C@@H](c2cn3c4c(cccc24)CCC3)[C@@H]1c1c[nH]c2ccccc12 [Tivantinib] + C[C@@H](Oc1cc(-c2cnn(C3CCNCC3)c2)cnc1N)c1c(Cl)ccc(F)c1Cl [Crizotinib] (partner 1 µM)
In short: as §1

Crenolanib + Dasatinib = compound: CC1(COc2ccc3c(c2)ncn3-c2ccc3cccc(N4CCC(N)CC4)c3n2)COC1 [Crenolanib] + Cc1nc(Nc2ncc(C(=O)Nc3c(C)cccc3Cl)s2)cc(N2CCN(CCO)CC2)n1 [Dasatinib] (partner 0.075 µM)
In short: as §1

Cell Line | relative viability (Crenolanib + Alpelisib; first compound 0.01 µM) | relative viability (Crenolanib + Alpelisib; first compound 0.03162 µM) | relative viability (Crenolanib + Alpelisib; first compound 0.1 µM) | relative viability (Crenolanib + Alpelisib; first compound 0.3162 µM) | relative viability (Crenolanib + Alpelisib; first compound 1 µM) | relative viability (Tivantinib + Foretinib; first compound 0.01 µM) | relative viability (Tivantinib + Foretinib; first compound 0.03162 µM) | relative viability (Tivantinib + Foretinib; first compound 0.1 µM) | relative viability (Tivantinib + Foretinib; first compound 0.3162 µM) | relative viability (Tivantinib + Crizotinib; first compound 0.01 µM) | relative viability (Tivantinib + Crizotinib; first compound 0.03162 µM) | relative viability (Tivantinib + Crizotinib; first compound 0.1 µM) | relative viability (Tivantinib + Crizotinib; first compound 0.3162 µM) | relative viability (Crenolanib + Dasatinib; first compound 0.01 µM) | relative viability (Crenolanib + Dasatinib; first compound 0.03162 µM) | relative viability (Crenolanib + Dasatinib; first compound 0.1 µM) | relative viability (Crenolanib + Dasatinib; first compound 0.3162 µM) | relative viability (Crenolanib + Dasatinib; first compound 1 µM)
201T | 1.01 | 1.02 | 0.998 | 1.05 | 1.05 | 1.16 | 1.01 | 1.02 | 0.921 | 1.01 | 1.01 | 1.04 | 1.02 | 0.603 | 0.602 | 0.569 | 0.528 | 0.614
A549 | 0.808 | 0.795 | 0.743 | 0.798 | 0.747 | 0.977 | 1.03 | 0.913 | 0.889 | 0.894 | 0.81 | 0.713 | 0.638 |  |  |  |  | 
A-427 | 1.06 | 1.1 | 1.02 | 1.12 | 0.977 | 1.06 | 1.24 | 0.97 | 0.848 | 0.893 | 1.02 | 0.821 | 0.859 | 0.693 | 0.723 | 0.699 | 0.688 | 0.64
ABC-1 | 1.06 | 1.13 | 0.772 | 0.999 | 0.898 | 0.936 | 0.995 | 1.09 | 1.15 | 1.39 | 1.14 | 0.91 | 1.5 | 0.566 | 0.718 | 0.538 | 0.608 | 0.564
BEN | 0.917 | 0.895 | 0.904 | 0.972 | 0.97 | 0.602 | 0.535 | 0.616 | 0.559 | 0.897 | 0.72 | 0.672 | 0.681 | 0.281 | 0.256 | 0.363 | 0.345 | 0.323
CAL-12T | 1.33 | 1.12 | 1.21 | 1.49 | 1.2 | 1.17 | 0.953 | 1.1 | 0.782 | 0.711 | 0.774 | 0.714 | 0.36 | 0.455 | 0.51 | 0.498 | 0.615 | 0.514
COR-L23 | 0.854 | 0.78 | 0.602 | 0.966 | 0.731 | 1.01 | 0.953 | 0.893 | 1.04 | 0.677 | 0.662 | 0.611 | 0.844 | 0.497 | 0.466 | 0.475 | 0.54 | 0.417
COR-L 105 | 1.02 | 1.25 | 0.811 | 1.03 | 1.02 | 0.834 | 0.991 | 0.982 | 0.735 | 0.725 | 0.769 | 0.787 | 0.435 | 0.453 | 0.315 | 0.383 | 0.42 | 0.411
Calu-6 | 1.01 | 0.92 | 1 | 1.17 | 1.12 | 0.931 | 0.924 | 0.806 | 0.725 | 0.795 | 0.799 | 0.665 | 0.826 |  |  |  |  | 
ChaGo-K-1 |  |  |  |  |  | 0.846 | 0.904 | 0.838 | 0.559 | 1.1 | 1.2 | 1.11 | 0.939 | 0.6 | 0.579 | 0.617 | 0.585 | 0.604
EBC-1 | 0.89 | 0.78 | 0.868 | 0.798 | 0.845 | 0.117 | 0.107 | 0.0799 | 0.0958 | 0.184 | 0.189 | 0.195 | 0.198 |  |  |  |  | 
EKVX | 0.893 | 0.96 | 0.862 | 0.965 | 0.99 | 0.714 | 0.841 | 0.761 |  | 0.944 | 0.965 | 0.712 | 0.242 | 0.519 | 0.473 | 0.561 | 0.591 | 0.512
EMC-BAC-2 | 0.747 | 0.758 | 0.68 | 0.881 | 0.771 | 1 | 0.962 | 0.487 | 0.72 | 0.833 | 0.728 | 0.751 | 0.657 | 0.369 | 0.312 | 0.315 | 0.313 | 0.307
EPLC-272H |  | 0.879 | 0.821 | 1.03 | 0.938 | 0.776 | 0.593 | 0.787 | 0.0941 | 1.04 | 0.963 | 0.785 | 0.82 | 0.35 | 0.349 | 0.317 | 0.391 | 0.532
H3255 | 0.811 | 0.676 | 0.71 | 0.714 | 0.767 | 0.806 | 0.933 | 0.802 |  | 0.905 | 0.922 | 0.763 |  | 0.323 | 0.266 | 0.376 | 0.422 | 0.338
HARA | 0.877 | 0.818 | 0.712 | 0.793 | 0.751 | 0.864 | 0.795 | 0.935 | 0.643 | 1.07 | 1.01 | 1.01 | 0.878 | 0.234 | 0.256 | 0.3 | 0.246 | 0.292
HCC-15 | 0.873 | 0.829 | 0.888 | 0.814 | 0.836 | 1.04 | 1.01 | 0.991 | 0.986 | 0.722 | 0.791 | 0.731 | 0.853 | 0.645 | 0.678 | 0.66 | 0.701 | 0.545
HCC-44 | 0.836 | 0.857 | 0.718 | 0.932 | 0.782 |  |  |  |  | 0.766 | 0.915 | 0.773 | 0.787 |  |  |  |  | 
HCC-78 | 0.357 | 0.312 | 0.348 | 0.402 | 0.338 | 0.548 | 0.547 | 0.539 | 0.441 | 0.341 | 0.321 | 0.317 | 0.206 | 0.389 | 0.314 |  | 0.354 | 0.275
HCC-366 | 0.484 | 0.655 | 0.351 | 0.428 | 0.406 | 0.89 | 0.852 | 0.929 | 0.912 | 0.641 | 0.559 | 0.43 | 0.672 | 0.655 | 0.662 | 0.593 | 0.648 | 0.519
